Test results as given in patent US3984393A, “Aminoglycoside antibiotics” (The Upjohn Company, priority 1975, dated 1976).
≈ marks a conversion by molar mass, not a printed value.

Key:
S. flexneri UC 143 = assay: standard microplate test in BHI Agar (MIC), S. flexneri UC 143; assay type: cell-based; conditions: Shigella flexneri, UC143, 20 h, retest table, group (7β), (14β), neamine control, read-out: Minimum Inhibitory Concentration
Protocol: (§1) Compounds were also tested in a standard microplate test in Brain Heart Infusion (BHI) Agar, at a concentration of 1 mg/ml. Incubation is at 37° and end points are read at 20 hours. Brain Heart Infusion Agar (supplied by Difco Laboratories, Detroit, Michigan, U.S.A.) has the following composition:
(§2) Compounds (7β), (7α) and (9) were tested again along with compounds (11) and (14β) against a neamine control using the same conditions as given above.

P. vulgaris UC 93 [1] = assay: agar diffusion (standard agar disc plate) assay, p. vulgaris UC 93; assay type: cell-based; set-up: unit: mm
Protocol: (§3) The novel intermediates, disclosed herein, are useful to make novel aminoglycoside antibiotics. These novel aminoglycoside antibiotics are antibacterially active, and, thus, they can be used in various environments to eradicate or control sensitive bacteria. Following are in vitro antibacterial test results for representative compounds of the subject invention. The results were obtained with a standard disc plate assay using 12.5 mm paper discs.
(§4) Compound (14β) was also tested against a series of bacteria on a standard agar disc plate assay, as described above.

S. marcescens UC 131 = assay: standard microplate test in BHI Agar (MIC), S. marcescens UC 131; assay type: cell-based; conditions: Serratia marcescens, UC131, 20 h; S. marcescens UC 131; retest table, group (7β), (14β), neamine control; read-out: Minimum Inhibitory Concentration
Protocol: as §1, §2

B. cereus UC 3145 = assay: agar diffusion (standard agar disc plate) assay, B. cereus UC 3145; assay type: cell-based, Bacillus cereus; set-up: unit: mm
Protocol: as §3, §4

S. lutea UC 130 = assay: agar diffusion (standard agar disc plate) assay, S. lutea UC 130; assay type: cell-based; set-up: unit: mm
Protocol: as §3, §4

Ps. aeruginosa UC 95 [2] = assay: agar diffusion (standard agar disc plate) assay, Ps. aeruginosa UC 95; assay type: cell-based
Protocol: as §3, §4

S. aureus UC 76 [3] = assay: agar diffusion (standard agar disc plate) assay, S. aureus UC 76; assay type: cell-based, Staphylococcus aureus; set-up: unit not given here
Protocol: as §3, §4

B. subtilis UC 564 = assay: agar diffusion (standard agar disc plate) assay, B. subtilis UC 564; assay type: cell-based, Bacillus subtilis; set-up: unit: mm
Protocol: as §3, §4

K. pneumoniae UC 58 = assay: standard microplate test in BHI Agar (MIC), K. pneumoniae UC 58; assay type: cell-based; conditions: Klebsiella pneumoniae, UC58, 20 h; K. pneumoniae UC 58; retest table, group (7β), (14β), neamine control; read-out: Minimum Inhibitory Concentration
Protocol: as §1, §2

P. morgani UC 3186 = assay: standard microplate test in BHI Agar (MIC), P. morgani UC 3186; assay type: cell-based; conditions: 20 h; P. morgani UC 3186; retest table, group (7β), (14β), neamine control; read-out: Minimum Inhibitory Concentration
Protocol: as §1, §2

B. cereus = assay: standard disc plate assay, 12.5 mm paper discs (zone of inhibition), B. cereus; assay type: cell-based, Bacillus cereus; conditions: conclusion in words from the above results
Source text: as §3

B. subtilis = assay: standard disc plate assay, 12.5 mm paper discs (zone of inhibition), B. subtilis; assay type: cell-based, Bacillus subtilis; conditions: conclusion in words from the above results
Source text: as §3

K. pneumoniae UC 57 = assay: agar diffusion (standard agar disc plate) assay, K. pneumoniae UC 57; assay type: cell-based; set-up: unit: mm
Protocol: as §3, §4

E. coli UC 51 = assay: agar diffusion (standard agar disc plate) assay, E. coli UC 51; assay type: cell-based, Escherichia coli; set-up: unit not given here
Protocol: as §3, §4

P. vulgaris UC 93 [4] = assay: standard microplate test in BHI Agar (MIC), P. vulgaris UC 93; assay type: cell-based; conditions: Proteus vulgaris, UC93, 20 h, P. vulgaris UC 93; retest table, group (7β), (14β), neamine control; read-out: Minimum Inhibitory Concentration
Protocol: as §1, §2

P. rettgeri UC 339 = assay: standard microplate test in BHI Agar (MIC), P. rettgeri UC 339; assay type: cell-based; conditions: Providencia rettgeri, UC339, 20 h; P. rettgeri UC 339; retest table, group (7β), (14β), neamine control; read-out: Minimum Inhibitory Concentration
Protocol: as §1, §2

St. faecalis UC 694 = assay: standard microplate test in BHI Agar (MIC), St. faecalis UC 694; assay type: cell-based; conditions: Enterococcus faecalis, UC694, 20 h, S. faecalis UC 694; retest table, group (7β), (14β), neamine control; read-out: Minimum Inhibitory Concentration
Protocol: as §1, §2

S. hemolyticus UC 152 = assay: standard microplate test in BHI Agar (MIC), S. hemolyticus UC 152; assay type: cell-based, Streptococcus hemolyticus; conditions: Streptococcus pyogenes, UC152, 20 h; S. hemolyticus UC 152; retest table, group (7β), (14β), neamine control; read-out: Minimum Inhibitory Concentration
Protocol: as §1, §2

P. mirabilis A-63 = assay: standard microplate test in BHI Agar (MIC), P. mirabilis A-63; assay type: cell-based; conditions: Proteus mirabilis, A63, 20 h; P. mirabilis A-63; retest table, group (7β), (14β), neamine control; read-out: Minimum Inhibitory Concentration
Protocol: as §1, §2

S. aureus UC 76 [5] = assay: standard microplate test in BHI Agar (MIC), S. aureus UC 76; assay type: cell-based, Staphylococcus aureus
Protocol: as §1, §2

Ps. aeruginosa UC 95 [6] = assay: standard microplate test in BHI Agar (MIC), Ps. aeruginosa UC 95; assay type: cell-based; conditions: Pseudomonas aeruginosa, UC95, 20 h, Ps. aeruginosa UC 95; retest table, group (7β), (14β), neamine control; read-out: Minimum Inhibitory Concentration
Protocol: as §1, §2

D. pneumoniae UC 41 = assay: standard microplate test in BHI Agar (MIC), D. pneumoniae UC 41; assay type: cell-based; conditions: Streptococcus pneumoniae, UC41, 20 h, D. pneumoniae UC 41; retest table, group (7β), (14β), neamine control; read-out: Minimum Inhibitory Concentration
Protocol: as §1, §2

E. coli UC 45 = assay: standard microplate test in BHI Agar (MIC), E. coli UC 45; assay type: cell-based; conditions: Escherichia coli, UC45, 20 h, E. coli UC 45; retest table, group (7β), (14β), neamine control; read-out: Minimum Inhibitory Concentration
Protocol: as §1, §2

S. typhi TG-3 = assay: standard microplate test in BHI Agar (MIC), S. typhi TG-3; assay type: cell-based; conditions: Salmonella enterica, 20 h, read-out: Minimum Inhibitory Concentration
Protocol: as §1, §2

SMILES: NC[C@H]1O[C@H](O[C@H]2[C@H](O)[C@@H](O)[C@H](N)C[C@@H]2N)[C@H](N)[C@@H](O[C@@H]2O[C@H](CO)[C@@H](O)[C@H]2O)[C@@H]1O [Compound (14β), 3'-O-(β-D-Ribofuranosyl)neamine]
- MIC (S. flexneri UC 143): 1000 µg/mL (≈ 2200 µM)
- Agar Diffusion Assay (P. vulgaris UC 93 [1]; Full Strength): 26
- Agar Diffusion Assay (P. vulgaris UC 93 [1]; dilution 1 : 2): 22
- Agar Diffusion Assay (P. vulgaris UC 93 [1]; dilution 1 : 4): 19.5
- Agar Diffusion Assay (P. vulgaris UC 93 [1]; dilution 1 : 8): 16
- MIC (S. marcescens UC 131): 1000 µg/mL (≈ 2200 µM)
- Agar Diffusion Assay (B. cereus UC 3145; Full Strength): 25.5
- Agar Diffusion Assay (B. cereus UC 3145; dilution 1 : 2): 24
- Agar Diffusion Assay (B. cereus UC 3145; dilution 1 : 4): 21
- Agar Diffusion Assay (B. cereus UC 3145; dilution 1 : 8): 18
- Agar Diffusion Assay (S. lutea UC 130; Full strength): 25
- Agar Diffusion Assay (S. lutea UC 130; dilution 1 : 2): 22.5
- Agar Diffusion Assay (S. lutea UC 130; dilution 1 : 4): 19
- Agar Diffusion Assay (S. lutea UC 130; dilution 1 : 8): 15
- Agar Diffusion Assay (Ps. aeruginosa UC 95 [2]; Full Strength): 20
- Agar Diffusion Assay (Ps. aeruginosa UC 95 [2]; dilution 1 : 2): 17
- Agar Diffusion Assay (Ps. aeruginosa UC 95 [2]; dilution 1 : 4): 14
- Agar Diffusion Assay (S. aureus UC 76 [3]; Full Strength): 25
- Agar Diffusion Assay (S. aureus UC 76 [3]; dilution 1 : 2): 23
- Agar Diffusion Assay (S. aureus UC 76 [3]; dilution 1 : 4): 21
- Agar Diffusion Assay (S. aureus UC 76 [3]; dilution 1 : 8): 17.5
- Agar Diffusion Assay (B. subtilis UC 564; Full Strength): 37
- Agar Diffusion Assay (B. subtilis UC 564; dilution 1 : 2): 35.5
- Agar Diffusion Assay (B. subtilis UC 564; dilution 1 : 4): 33
- Agar Diffusion Assay (B. subtilis UC 564; dilution 1 : 8): 30.5
- MIC (K. pneumoniae UC 58): 500 µg/mL (≈ 1100 µM)
- MIC (P. morgani UC 3186): 1000 µg/mL (≈ 2200 µM)
- active against Bacillus cereus (B. cereus): active
- active against Bacillus subtilis (B. subtilis): active
- Agar Diffusion Assay (K. pneumoniae UC 57; Full strength): 31
- Agar Diffusion Assay (K. pneumoniae UC 57; dilution 1 : 2): 29
- Agar Diffusion Assay (K. pneumoniae UC 57; dilution 1 : 4): 27
- Agar Diffusion Assay (K. pneumoniae UC 57; dilution 1 : 8): 23
- Agar Diffusion Assay (E. coli UC 51; Full Strength): 27
- Agar Diffusion Assay (E. coli UC 51; dilution 1 : 2): 24.5
- Agar Diffusion Assay (E. coli UC 51; dilution 1 : 4): 22
- Agar Diffusion Assay (E. coli UC 51; dilution 1 : 8): 18
- MIC (P. vulgaris UC 93 [4]): 1000 µg/mL (≈ 2200 µM)
- MIC (P. rettgeri UC 339): 1000 µg/mL (≈ 2200 µM)
- MIC (St. faecalis UC 694): 1000 µg/mL (≈ 2200 µM)
- MIC (S. hemolyticus UC 152): 1000 µg/mL (≈ 2200 µM)
- MIC (P. mirabilis A-63): 1000 µg/mL (≈ 2200 µM)
- MIC (S. aureus UC 76 [5]; Staphylococcus aureus, UC76, 20 h, S. aureus UC 76, retest table, group (7β), (14β), neamine control, read-out: Minimum Inhibitory Concentration): 1000 µg/mL (≈ 2200 µM)
- active against Staphylococcus aureus (S. aureus UC 76 [5]; conclusion in words from the above results): active
- MIC (Ps. aeruginosa UC 95 [6]): 1000 µg/mL (≈ 2200 µM)
- MIC (D. pneumoniae UC 41): 1000 µg/mL (≈ 2200 µM)
- MIC (E. coli UC 45): 1000 µg/mL (≈ 2200 µM)
- MIC (S. typhi TG-3): 1000 µg/mL (≈ 2200 µM)
